Literature values as cited in publication PMC10443619 (ACS chemical biology, 2023).
Each block holds one substance with its values, some of them ahead of it.

Assays:
[1] = system: tau; details: compared with YM-01
[2] = system: tau
[3] = system: tau; details: compared with MKT-077
[4] = not given; remark: listed apart in the source

half-life (t1/2): 37 min
Substance: JG-98
potency to prevent cellular tau accumulation [1]: greater potency to prevent cellular tau accumulation than YM-01 | total tau in organotypic brain slices ([2]; rTg4510 mice): reduced total tau

Substance: YM-01
potency to prevent tau accumulation in HeLaC3 cells [3]: enhanced the potency to prevent tau accumulation | blood-brain permeability [4]: lacked detectable blood-brain permeability | pathogenic tau in ex vivo brain slices ([2]; transgenic rTg4510 mice): reduced pathogenic tau
